Results reported in paper PMC8772704, “Quantification of Fosfomycin in Combination with Nine Antibiotics in Human Plasma and Cation-Adjusted Mueller-Hinton II Broth via LCMS” (Antibiotics, 2022).

Experiments:
[1] = Autosampler stability at 4 °C of extracted antibiotic-spiked plasma/CAMHB samples; conditions: for Mean accuracy (%), Table S8 / Mean accuracy (%), Table S10: CAMHB extracted samples; for Mean accuracy (%), Table S8 / Mean accuracy (%), Table S7: 7 h autosampler 4 °C; for Mean accuracy (%), Table S10 / Mean accuracy (%), Table S9: 15 h autosampler 4 °C; for Mean accuracy (%), Table S7 / Mean accuracy (%), Table S9: plasma extracted samples
Protocol: (§1) The stability of fosfomycin in combination with other antibiotics in plasma/CAMHB was evaluated under various operational conditions. Spiked plasma/CAMHB samples were evaluated at 7 h and 15 h in the autosampler at 4 °C. Long-term stability was evaluated up to 4 weeks of antibiotic-spiked plasma/CAMHB samples at LQC, MQC, and HQC concentrations stored at −30 °C and −80 °C.

[2] = 32-day stability of stock solutions stored at −80 °C; assay type: physicochemical; conditions: stock solution stored at -80 °C; peak area Day 32 vs Day 1
Protocol: Stability of stock solutions
All stock solutions of antibiotics and their corresponding stable-isotope variants were measured prior to cold storage at -80 °C and tested at 32 days later.
Stability was determined by comparing the peak area of each drug between its Day 1 and Day 32 measurement. Acceptable criteria for stability was met if the […]

[3] = Plasma concentrations in four patients on fosfomycin-based combination therapy (pilot clinical feasibility study, LCMS/MS)
Protocol: For 20 µL of plasma/CAMHB sample, 20 µL of water and 20 µL of stable-isotope as internal standard (IS) were added and vortexed. 180 µL of acetonitrile was added for protein precipitation and subsequently removed by centrifugation (12,700 rpm for 10 min at 25 °C). Finally, 15 µL of the supernatant was diluted with 225 µL formic acid in water (0.1% v/v), and 10 µL was injected for LCMS/MS analysis. For the calibration curve and QCs, 20 µL of the corresponding antibiotic standard working solution was added instead of water.
Samples were analyzed using a Nexera X2 LCMS 8060 system (Shimadzu, Kyoto, Japan). […] Electrospray ionization employing positive and negative ion mode with multiple reaction monitoring was used for analyte quantification (Table S1). Data were acquired and analyzed using Shimadzu LabSolutions (Version 5.97).
The assay method described in this paper has been applied to a pilot clinical feasibility study to evaluate the proportion of patients with sub-optimal β-lactam levels and the need for dose adjustments in infected patients with unpredictable pharmacokinetics. We described a case series of four patients where they received in vitro guided antibiotic combination therapy using a fosfomycin-based combination regimen to treat a carbapenem-resistant Gram-negative bacteria infection. These four patients were recruited into the BLAST-2 study as the combination regimen contains a β-lactam antibiotic. In this case series, two were undergoing intermittent hemodialysis, and two patients had normal renal function. In the two patients on hemodialysis, they were on a dosing regimen of 8 g of fosfomycin on dialysis days (3 g at least 4 h before dialysis session and 5 g after completion of dialysis). The remaining two patients received 8 g of fosfomycin given every 8 h as a prolonged infusion.
Blood samples (2–3 mL from an indwelling catheter) were collected four times over a dosing interval of the β-lactam dosing regimen and centrifuged (10 min at 3000 rpm) (Eppendorf 5425R). The resultant plasma was stored (within 15 min of collection) at −80 °C until assay.

[4] = Long-term storage stability of antibiotics in combination with fosfomycin spiked in plasma/CAMHB (−30 °C, −80 °C); assay type: physicochemical; conditions: for Mean accuracy (%), Table S15 / Mean accuracy (%), Table S17 / Mean accuracy (%), Table S16 / Mean accuracy (%), Table S18: CAMHB; for Mean accuracy (%), Table S15 / Mean accuracy (%), Table S17 / Mean accuracy (%), Table S16 / Mean accuracy (%), Table S18 / Mean accuracy (%), Table S11 / Mean accuracy (%), Table S13 / Mean accuracy (%), Table S12 / Mean accuracy (%), Table S14: combination with fosfomycin; for Mean accuracy (%), Table S15 / Mean accuracy (%), Table S11: 2 weeks at -30 °C; for Mean accuracy (%), Table S17 / Mean accuracy (%), Table S13: 2 weeks at -80 °C; for Mean accuracy (%), Table S16 / Mean accuracy (%), Table S12: 4 weeks at -30 °C; for Mean accuracy (%), Table S18 / Mean accuracy (%), Table S14: 4 weeks at -80 °C; for Mean accuracy (%), Table S11 / Mean accuracy (%), Table S13 / Mean accuracy (%), Table S12 / Mean accuracy (%), Table S14: plasma
Protocol: as §1

[5] = HQC: nominal mg/L CAZ 150, FEP 200, PIP 250, ATM 300, MEM 200, DOR 175, LVX 30, CEFT 250, TZB 87.5, TGC 20, AVI 30, FOF 1000
[6] = LQC: nominal 1 mg/L (levofloxacin, avibactam 0.5; fosfomycin 10)
[7] = MQC: nominal mg/L CAZ 75, FEP 100, PIP 150, ATM 150, MEM 100, DOR 87.5, LVX 15, CEFT 125, TZB 43.75, TGC 10, AVI 15, FOF 500

Row | Structure (SMILES) | Mean accuracy (%), Table S8 ([1]; HQC (nominal as E15)) [%] | Mean accuracy (%), Table S8 ([1]; LQC (nominal as E13)) [%] | Mean accuracy (%), Table S8 ([1]; MQC (nominal as E14)) [%] | Mean accuracy (%), Table S10 ([1]; HQC (nominal as E15)) [%] | Mean accuracy (%), Table S10 ([1]; LQC (nominal as E13)) [%] | Mean accuracy (%), Table S10 ([1]; MQC (nominal as E14)) [%] | Mean accuracy (%), Table S7 [1, 5] [%] | Mean accuracy (%), Table S7 [1, 6] [%] | Mean accuracy (%), Table S7 [1, 7] [%] | Mean accuracy (%), Table S9 ([1]; HQC (nominal as E15)) [%] | Mean accuracy (%), Table S9 ([1]; LQC (nominal as E13)) [%] | Mean accuracy (%), Table S9 ([1]; MQC (nominal as E14)) [%] | 32 Day Stability (%) [2] [%] | Mean accuracy (%), Table S15 ([4]; HQC (nominal as E15)) [%] | Mean accuracy (%), Table S15 ([4]; LQC (nominal as E13)) [%] | Mean accuracy (%), Table S15 ([4]; MQC (nominal as E14)) [%] | Mean accuracy (%), Table S17 ([4]; HQC (nominal as E15)) [%] | Mean accuracy (%), Table S17 ([4]; LQC (nominal as E13)) [%] | Mean accuracy (%), Table S17 ([4]; MQC (nominal as E14)) [%] | Mean accuracy (%), Table S16 ([4]; HQC (nominal as E15)) [%] | other results
1 | C[C@H]1[C@H](NC(=O)/C(=N\OC(C)(C)C(=O)O)c2csc(N)n2)C(=O)N1S(=O)(=O)O [Aztreonam, aztreonam] | 99.3 | 109.7 | 107.5 | 104.4 | 103.7 | 104.7 | 109.1 | 100.8 | 101.2 | 107.9 | 105.8 | 102.4 | 99.75 | 102.6 | 102.2 | 92.5 | 100.2 | 101.3 | 95.1 | 92.5 | Mean total plasma concentration (range) ([3]; Patient 002, intermittent hemodialysis, aztreonam 2 g every 12 h as a 2-h infusion): 8.8 to 86.2 mg/L; Stability verdict (within ±15% of nominal) ([4]; CAMHB samples stored at −30 °C, 4 weeks): instability; Mean accuracy (%), Table S16 ([4]; LQC (nominal as E13)): 66.5%; Mean accuracy (%), Table S16 ([4]; MQC (nominal as E14)): 91.8%; Mean accuracy (%), Table S18 ([4]; HQC (nominal as E15)): 98.4%; Mean accuracy (%), Table S18 ([4]; LQC (nominal as E13)): 109.7%; Mean accuracy (%), Table S18 ([4]; MQC (nominal as E14)): 96.0%; Mean accuracy (%), Table S11 ([4]; HQC (nominal as E15)): 97.3%; Mean accuracy (%), Table S11 ([4]; LQC (nominal as E13)): 103.1%; Mean accuracy (%), Table S11 ([4]; MQC (nominal as E14)): 90.2%; Mean accuracy (%), Table S13 ([4]; HQC (nominal as E15)): 97.2%; Mean accuracy (%), Table S13 ([4]; LQC (nominal as E13)): 87.6%; Mean accuracy (%), Table S13 ([4]; MQC (nominal as E14)): 94.5%; Mean accuracy (%), Table S12 ([4]; HQC (nominal as E15)): 96.1%; Mean accuracy (%), Table S12 ([4]; LQC (nominal as E13)): 106.4%; Mean accuracy (%), Table S12 ([4]; MQC (nominal as E14)): 96.2%; Mean accuracy (%), Table S14 ([4]; HQC (nominal as E15)): 97.8%; Mean accuracy (%), Table S14 ([4]; LQC (nominal as E13)): 104.2%; Mean accuracy (%), Table S14 ([4]; MQC (nominal as E14)): 101.4%
2 | C[C@@H]1O[C@@H]1P(=O)(O)O [Fosfomycin, fosfomycin] | 96.0 | 107.1 | 95.9 | 95.6 | 107.4 | 94.8 | 102.9 | 104.5 | 101.0 | 101.4 | 106.3 | 101.8 | 95.80 | 98.5 | 103.1 | 94.7 | 96.3 | 110.6 | 99.5 | 94.6 | Mean total plasma concentration (range) ([3]; four patients, samples measured in triplicates): 11.3 to 746.9 mg/L; Mean accuracy (%), Table S16 ([4]; LQC (nominal as E13)): 103.6%; Mean accuracy (%), Table S16 ([4]; MQC (nominal as E14)): 95.4%; Mean accuracy (%), Table S18 ([4]; HQC (nominal as E15)): 101.8%; Mean accuracy (%), Table S18 ([4]; LQC (nominal as E13)): 104.7%; Mean accuracy (%), Table S18 ([4]; MQC (nominal as E14)): 98.2%; Mean accuracy (%), Table S11 ([4]; HQC (nominal as E15)): 98.4%; Mean accuracy (%), Table S11 ([4]; LQC (nominal as E13)): 102.2%; Mean accuracy (%), Table S11 ([4]; MQC (nominal as E14)): 92.1%; Mean accuracy (%), Table S13 ([4]; HQC (nominal as E15)): 95.6%; Mean accuracy (%), Table S13 ([4]; LQC (nominal as E13)): 101.8%; Mean accuracy (%), Table S13 ([4]; MQC (nominal as E14)): 94.6%; Mean accuracy (%), Table S12 ([4]; HQC (nominal as E15)): 94.0%; Mean accuracy (%), Table S12 ([4]; LQC (nominal as E13)): 104.5%; Mean accuracy (%), Table S12 ([4]; MQC (nominal as E14)): 92.4%; Mean accuracy (%), Table S14 ([4]; HQC (nominal as E15)): 97.7%; Mean accuracy (%), Table S14 ([4]; LQC (nominal as E13)): 100.8%; Mean accuracy (%), Table S14 ([4]; MQC (nominal as E14)): 90.6%
3 | C[C@]1(Cn2ccnn2)[C@H](C(=O)O)N2C(=O)C[C@H]2S1(=O)=O [Tazobactam, tazobactam] | 109.6 | 109.4 | 107.5 | 111.6 | 112.3 | 107.7 | 111.3 | 113.6 | 104.1 | 107.9 | 107.0 | 98.1 | 93.04 | 96.9 | 93.8 | 90.4 | 108.9 | 103.8 | 103.7 | 91.0 | Mean total plasma concentration (range) ([3]; Patient 001, piperacillin/tazobactam 4.5 g every 6 h as a 1-h infusion): 20.9 to 58.3 mg/L; Mean accuracy (%), Table S16 ([4]; LQC (nominal as E13)): 69.7%; Mean accuracy (%), Table S16 ([4]; MQC (nominal as E14)): 84.1%; Mean accuracy (%), Table S18 ([4]; HQC (nominal as E15)): 106.4%; Mean accuracy (%), Table S18 ([4]; LQC (nominal as E13)): 105.4%; Mean accuracy (%), Table S18 ([4]; MQC (nominal as E14)): 103.3%; Mean accuracy (%), Table S11 ([4]; HQC (nominal as E15)): 106.0%; Mean accuracy (%), Table S11 ([4]; LQC (nominal as E13)): 107.9%; Mean accuracy (%), Table S11 ([4]; MQC (nominal as E14)): 104.6%; Mean accuracy (%), Table S13 ([4]; HQC (nominal as E15)): 95.4%; Mean accuracy (%), Table S13 ([4]; LQC (nominal as E13)): 108.8%; Mean accuracy (%), Table S13 ([4]; MQC (nominal as E14)): 104.7%; Mean accuracy (%), Table S12 ([4]; HQC (nominal as E15)): 96.4%; Mean accuracy (%), Table S12 ([4]; LQC (nominal as E13)): 102.0%; Mean accuracy (%), Table S12 ([4]; MQC (nominal as E14)): 98.7%; Mean accuracy (%), Table S14 ([4]; HQC (nominal as E15)): 100.5%; Mean accuracy (%), Table S14 ([4]; LQC (nominal as E13)): 100.7%; Mean accuracy (%), Table S14 ([4]; MQC (nominal as E14)): 101.3%
